# Measured values reported in patent US20160083397A1, “PARTHENOLIDE DERIVATIVES AND THEIR MODULATION OF PROCESSES CONTROLLED BY REGULATED TRANSLATION” (THE BOARD OF TRUSTEES OF THE UNIVERSITY OF ARKANSAS, priority 2013, published 2016).
# Experiments:
# [1] = tested on: PC-3; conditions: for GI50: PC-3, Prostate Cancer
# [2] = tested on: RPMI-8226; conditions: for GI50: RPMI-8226, Leukemia
# [3] = tested on: SNB-19; conditions: for GI50: SNB-19, CNS Cancer
# [4] = tested on: OVCAR-3; conditions: for GI50: OVCAR-3, Ovarian Cancer
# [5] = tested on: OVCAR-8; conditions: for GI50: OVCAR-8, Ovarian Cancer
# [6] = tested on: OVCAR-4; conditions: for GI50: OVCAR-4, Ovarian Cancer
# [7] = tested on: NCI/ADR-RES; conditions: for GI50: NCI/ADR-RES, Ovarian Cancer
# [8] = tested on: SF-539; conditions: for GI50: SF-539, CNS Cancer
# [9] = tested on: CCRF-CEM; conditions: for GI50: CCRF-CEM, Leukemia
# [10] = tested on: SF-295; conditions: for GI50: SF-295, CNS Cancer
# [11] = tested on: SN12C; conditions: for GI50: SN12C, Renal Cancer
# [12] = tested on: MCF7; conditions: for GI50: MCF7, Breast Cancer
# [13] = tested on: UO-31; conditions: for GI50: UO-31, Renal Cancer
# [14] = tested on: UACC-257; conditions: for GI50: UACC-257, Melanoma
# [15] = tested on: MOLT-4; conditions: for GI50: MOLT-4, Leukemia
# [16] = tested on: SK-MEL-28; conditions: for GI50: SK-MEL-28, Melanoma
# [17] = tested on: BT-549; conditions: for GI50: BT-549, Breast Cancer
# [18] = tested on: ACHN; experiment: NCI 60-cell line five dose screen: ACHN; conditions: Renal Cancer
# [19] = tested on: NCI-H460; conditions: for GI50: NCI-H460, Lung Cancer
# [20] = tested on: SW-620; conditions: for GI50: SW-620, Colon Cancer
# [21] = tested on: U251; conditions: for GI50: U251, CNS Cancer
# [22] = tested on: MALME-3M; conditions: for GI50: MALME-3M, Melanoma
# [23] = tested on: SK-MEL-5; conditions: for GI50: SK-MEL-5, Melanoma
# [24] = tested on: MDA-MB-231/ATCC; conditions: for GI50: MDA-MB-231/ATCC, Breast Cancer
# [25] = tested on: NCI-H23; conditions: for GI50: NCI-H23, Lung Cancer
# [26] = tested on: M14; conditions: for GI50: M14, Melanoma
# [27] = tested on: HOP-62; conditions: for GI50: HOP-62, Lung Cancer
# [28] = tested on: NCI-H226; conditions: for GI50: NCI-H226, Lung Cancer
# [29] = tested on: HL-60(TB); conditions: for GI50: Leukemia
# [30] = tested on: HCT-15; conditions: for GI50: HCT-15, Colon Cancer
# [31] = tested on: DU-145; conditions: for GI50: DU-145, Prostate Cancer
# [32] = tested on: HS 578T; conditions: for GI50: HS 578T, Breast Cancer
# [33] = tested on: MDA-MB-468; conditions: for GI50: MDA-MB-468, Breast Cancer
# [34] = tested on: HCT-116; conditions: for GI50: HCT-116, Colon Cancer
# [35] = tested on: KM12; conditions: for GI50: KM12, Colon Cancer
# [36] = tested on: A498; conditions: for GI50: A498, Renal Cancer
# [37] = tested on: SNB-75; conditions: for GI50: SNB-75, CNS Cancer
# [38] = tested on: T-47D; conditions: for GI50: T-47D, Breast Cancer
# [39] = tested on: MDA-MB-435; conditions: for GI50: MDA-MB-435, Melanoma
# [40] = tested on: K-562; conditions: for GI50: K-562, Leukemia
# [41] = tested on: SK-OV-3; conditions: for GI50: SK-OV-3, Ovarian Cancer
# [42] = tested on: OVCAR-5; conditions: for GI50: OVCAR-5, Ovarian Cancer
substance,measurement,setting,value
13-(2-iodoimidazole)parthenolide [PNR-5-65],CC50,[1],> 100 µM
same,GI50,[1],23.1 µM
same,CC50,[2],> 100 µM
same,GI50,[2],17 µM
same,CC50,[3],> 100 µM
same,GI50,[3],> 100 µM
same,CC50,[4],50.8 µM
same,GI50,[4],6.85 µM
same,CC50,[5],59.9 µM
same,GI50,[5],16.6 µM
same,CC50,[6],60 µM
same,GI50,[6],13.2 µM
same,CC50,[7],> 100 µM
same,GI50,[7],31.2 µM
same,CC50,[8],60.8 µM
same,GI50,[8],16.7 µM
same,CC50,[9],79.6 µM
same,GI50,[9],6.13 µM
same,CC50,[10],> 100 µM
same,GI50,[10],32.1 µM
same,CC50,[11],84.1 µM
same,GI50,[11],17.7 µM
same,CC50,[12],> 100 µM
same,GI50,[12],9.79 µM
same,CC50,[13],50 µM
same,GI50,[13],10.8 µM
same,CC50,[14],53.9 µM
same,GI50,[14],12 µM
same,CC50,[15],97.9 µM
same,GI50,[15],19.6 µM
same,CC50,[16],73 µM
same,GI50,[16],16.1 µM
same,CC50,[17],55.3 µM
same,GI50,[17],15.9 µM
same,GI50,[18],10.5 µM
same,CC50,[19],> 100 µM
same,GI50,[19],30.1 µM
same,CC50,[20],62.8 µM
same,GI50,[20],11.4 µM
same,CC50,[21],> 100 µM
same,GI50,[21],36.7 µM
same,CC50,[22],62.7 µM
same,GI50,[22],10.9 µM
same,CC50,[23],95.6 µM
same,GI50,[23],18.5 µM
same,CC50,[24],59.6 µM
same,GI50,[24],16.4 µM
same,CC50,[25],> 100 µM
same,GI50,[25],23.7 µM
same,CC50,[26],65.6 µM
same,GI50,[26],16.5 µM
same,CC50,[27],> 100 µM
same,GI50,[27],47.4 µM
same,CC50,[28],62.3 µM
same,GI50,[28],15.4 µM
same,GI50,[29],6.9 µM
same,CC50,[30],55.6 µM
same,GI50,[30],10.7 µM
same,CC50,[31],68.3 µM
same,GI50,[31],18.8 µM
same,CC50,[32],> 100 µM
same,GI50,[32],21.3 µM
same,CC50,[33],60.4 µM
same,GI50,[33],11.1 µM
same,CC50,[34],49 µM
same,GI50,[34],11.8 µM
same,CC50,[35],> 100 µM
same,GI50,[35],43.2 µM
same,CC50,[36],> 100 µM
same,GI50,[36],45.2 µM
same,CC50,[37],> 100 µM
same,GI50,[37],19.3 µM
same,CC50,[38],54.3 µM
same,GI50,[38],9.88 µM
same,CC50,[39],59.5 µM
same,GI50,[39],13.8 µM
same,CC50,[40],90 µM
same,GI50,[40],7.36 µM
same,CC50,[41],> 100 µM
same,GI50,[41],47.3 µM
same,CC50,[42],52.5 µM
same,GI50,[42],13.7 µM
(E)-13-(3-thiopheno)parthenolide [PNR-5-53],CC50,[1],> 100 µM
same,GI50,[1],22.7 µM
same,CC50,[2],> 100 µM
same,GI50,[2],19.7 µM
same,CC50,[3],> 100 µM
same,GI50,[3],47.6 µM
same,CC50,[4],> 100 µM
same,GI50,[4],20.5 µM
same,CC50,[5],> 100 µM
same,GI50,[5],26.9 µM
same,CC50,[6],> 100 µM
same,GI50,[6],24.3 µM
same,CC50,[7],> 100 µM
same,GI50,[7],23.6 µM
same,GI50,[8],16.1 µM
same,CC50,[9],> 100 µM
same,GI50,[9],19.1 µM
same,CC50,[10],> 100 µM
same,GI50,[10],28.5 µM
same,CC50,[11],> 100 µM
same,GI50,[11],25.8 µM
same,CC50,[12],> 100 µM
same,GI50,[12],20 µM
same,CC50,[13],> 100 µM
same,GI50,[13],27.3 µM
same,CC50,[14],> 100 µM
same,GI50,[14],16.6 µM
same,CC50,[15],> 100 µM
same,GI50,[15],25.7 µM
same,CC50,[16],> 100 µM
same,GI50,[16],29.4 µM
same,CC50,[17],88.2 µM
same,GI50,[17],20.1 µM
same,GI50,[18],32.8 µM
same,CC50,[19],> 100 µM
same,GI50,[19],29.3 µM
same,CC50,[20],> 100 µM
same,GI50,[20],22.9 µM
same,CC50,[21],> 100 µM
same,GI50,[21],21.7 µM
same,CC50,[22],> 100 µM
same,GI50,[22],22.5 µM
same,CC50,[23],60.4 µM
same,GI50,[23],16.3 µM
same,CC50,[24],81.8 µM
same,GI50,[24],16 µM
same,CC50,[25],> 100 µM
same,GI50,[25],23 µM
same,CC50,[26],> 100 µM
same,GI50,[26],20.5 µM
same,CC50,[27],> 100 µM
same,GI50,[27],35.8 µM
same,CC50,[28],> 100 µM
same,GI50,[28],30.2 µM
same,GI50,[29],21.7 µM
same,CC50,"[29]; read-out: LC50, Leukemia",99.9 µM
same,CC50,[30],> 100 µM
same,GI50,[30],22.6 µM
same,CC50,[31],> 100 µM
same,GI50,[31],25.7 µM
same,CC50,[32],> 100 µM
same,GI50,[32],21.5 µM
same,CC50,[33],> 100 µM
same,GI50,[33],17.7 µM
same,CC50,[34],> 100 µM
same,GI50,[34],28.3 µM
same,CC50,[35],86.7 µM
same,GI50,[35],20.4 µM
same,CC50,[36],> 100 µM
same,GI50,[36],17.5 µM
same,CC50,[37],> 100 µM
same,GI50,[37],21.5 µM
same,CC50,[38],> 100 µM
same,GI50,[38],29.5 µM
same,CC50,[39],> 100 µM
same,GI50,[39],18.3 µM
same,CC50,[40],> 100 µM
same,GI50,[40],25.2 µM
same,CC50,[41],> 100 µM
same,GI50,[41],44.9 µM
same,CC50,[42],> 100 µM
same,GI50,[42],48.1 µM
